# Laboratory results as given in US20230331777A1, “NOVEL PEPTOID COMPOUNDS THAT BIND TO CELL RECEPTOR ACE2 AND PREVENT VIRUS ENTRY INTO CELLS” (priority 2020, published 2023).
# Starred links: 1 amine or outer side, 2 acyl side, 3 side chain; linkers in the order of their positions; H or OH if unused. Positions of bridges follow the written chain, without caps; N, C: chain ends. Non-standard residues stand in square brackets, D forms with d. Residues, ends and D or L forms follow the SMILES beside them. Chains are numbered I, II in the order given. N(4-MeOBn)Gly = COc1ccc(CNCC(=O)O)cc1; N((CH2)3OiPr)Gly = CC(C)OCCCNCC(=O)O; X1 = CC(c1ccccc1)N(CC(=O)[*:2])[*:1]; NAllylGly = C=CCNCC(=O)O; Nleu = CC(C)CNCC(=O)O; Nme = COCCNCC(=O)O
# What was measured:
# [1] = system: ACE2 expressing MCF-7 cells; assay: on-bead cell binding of resynthesized peptoids (OBTC two-color); assay type: cell-based, human; conditions: peptoid on tentagel bead; ACE2+ red stained, ACE2- green stained MCF-7 cells
# Experimental: FIG. 6 provides experimental results illustrating that on-bead peptoids ACE2P1 and ACE2P2 bind to human ACE2 positive cells. The compounds ACE2P1 and ACE2P2 were resynthesized on the tentagel bead and incubated with ACE2 expressing MCF-7 cells (red stained) and ACE2 negative MCF-7 cells (green stained) individually as well as 1:1 mixture of red and green cells.
# Applicant resynthesized the identified ACE2P1 and ACE2P2 peptoids on-bead and introduced human ACE2^+ (red stained) and ACE2^- (green stained) MCF-7 cells separately to these two peptoid carrying beads.
# [2] = biological target: SARS-CoV-2 spike protein binding to ACE2 (Homo sapiens, UniProt Q9BYF1); assay: GST pull-down assay of spike protein-ACE2 interaction; conditions: premixed with ACE2 for 30 minutes; ACE2 detected by western blot
# ACE2 protein [3] = biological target: T1, ACE2 protein (Homo sapiens, UniProt Q9BYF1); assay: in vitro pulldown assay with peptoid conjugated beads; assay type: binding; conditions: 4° C. overnight, western blotting
# Experimental: To confirm a direct interaction between the peptoids and ACE2, Applicant performed in vitro pulldown assays. Recombinant human ACE2 protein was incubated with ACE2P1 or ACE2P2 conjugated beads at 4° C. overnight. The beads were then washed with PBS buffer for 3 times, and the binding proteins were eluted with 1% SDS. The yielded lysates were then applied onto 10% SDS-PAGE gel and subjected to western blotting (FIG. 8A).
# [4] = biological target: T2, ACE2 in human H1299 cells (Homo sapiens, UniProt Q9BYF1); assay: ACE2 enzymatic activity in cell homogenates; assay type: biochemical; conditions: captopril 10 µM
# T2 construct: endogenous in cells; host or cells: H1299 human lung cancer cells
# Experimental: (§1) Assays were run at 37° C. in an ACE2 reaction buffer containing 10 µM Mca-YVADAPK(Dnp), in a total volume of 100 µl. Fluorescence emission at 405 nm, after excitation at 320 nm, was measured in a microplate reader. Cleavage of the substrate Mca-YVADAPK(Dnp) by ACE2 enzyme produces fluorescence. The strength of the fluorescence indicates the ACE2 enzymatic activity.
# (§2) To measure ACE2 activity in cells, cell homogenates were used. To prevent hydrolysis of the substrate by a range of nonmetalloprotease enzymes from the cells, cOmplete™ Protease Inhibitor Cocktail (Roche/Sigma) were added to the cell homogenates. To eliminate the effects of ACE on the substrate, ACE inhibitor captopril (10 µM) was added to the assay.
# ACE2 in MCF-7 cells = biological target: T3, ACE2 in MCF-7 cells (Homo sapiens, UniProt Q9BYF1); assay: ACE2 enzymatic activity in cell homogenates; assay type: biochemical; conditions: MCF-7 cell homogenates, captopril 10 µM
# T3 construct: endogenous in cells; host or cells: MCF-7 cells
# Experimental: as §1, §2
# SARS-CoV-2 pseudovirus = assay type: cell-based, human H1299 cells
# ACE2 protein [5] = biological target: T1, ACE2 protein; assay: ACE2 expression by western blot; assay type: cell-based; design: endogenous in cells; host or cells: MCF-7 and Caco-2 cells; conditions: MCF-7 and Caco-2 cells, various doses, 48 hours
# Experimental: MCF-7 and Caco-2 cells were treated with various concentrations of ACE2P1D1 or ACE2P2D1 for 48 hours. ACE2 expression was determined by western blot analysis.
# As ACE2 is important in blood pressure regulation, Applicant assessed whether the peptoids can decrease ACE2 expression in human cells.
# ACE2 in Caco-2 cells = biological target: T4, ACE2 in Caco-2 cells (Homo sapiens, UniProt Q9BYF1); assay: ACE2 enzymatic activity in cell homogenates; assay type: biochemical; conditions: Caco-2 cell homogenates, captopril 10 µM
# T4 construct: endogenous in cells; host or cells: Caco-2 cells
# Experimental: Assays were run at 37° C. in ACE2 reaction buffer containing 10 µM Mca-YVADAPK(Dnp), in a total volume of 100 µl. Fluorescence emission at 405 nm, after excitation at 320 nm, was measured in a microplate reader. Cleavage of the substrate Mca-YVADAPK(Dnp) by ACE2 enzyme produces fluorescence. The strength of the fluorescence indicates the ACE2 enzymatic activity.
# as §2
# ACE2 protein [6] = biological target: T1, ACE2 protein; assay: Protein Thermal Shift assay; assay type: binding; conditions: 10 µM peptoid
# Experimental: FIGS. 8A-D illustrate that ACE2P1 and ACE2P2 interact directly with ACE2. FIG. 8A provides experimental results from an in vitro pulldown assay for ACE2P1 and ACE2P2. […] The thermal shift assay was carried out on a QuantStudio 3 Real-Time PCR System.
# Next, Applicant created the dimers of ACE2P1 and ACE2P2 (FIG. 8B) and performed thermal shift assays using recombinant ACE2 proteins. Thermal shift assay is routinely used in drug discovery to identify protein-ligand interactions. The Applied Biosystems™ Protein Thermal Shift™ assay measures protein thermal stability using a fluorescent protein-binding dye. […] The protein is mixed with the dye and heated. As it unfolds or melts, hydrophobic parts of the protein are exposed and bind to the dye, resulting in fluorescence emission detected by the qPCR system. Binding of a ligand to the protein changes the stability of the protein, resulting in a change in fluorescence intensity.
# ACE2 protein [7] = biological target: T1, ACE2 protein; assay: ACE2 enzymatic activity, Mca-YVADAPK(Dnp) fluorescence assay; assay type: biochemical; conditions: up to 10 µM peptoid; 10 µM Mca-YVADAPK(Dnp), 37° C.
# Experimental: as §1
# ACE2 is an enzyme that lowers blood pressure by catalyzing the hydrolysis of angiotensin II. […] Applicant assessed the effects of ACE2P1D1 and ACE2P2D1 on ACE2 enzyme activity on recombinant ACE2 protein.
# HEK293T cells = assay: WST-1 cell viability assay; assay type: cell-based, human; conditions: various concentrations, 48 hours
# Experimental: (§3) MCF-7 and HEK293T cells were treated with various concentrations of ACE2P1D1 (FIG. 12A) or ACE2P2D1 (FIG. 12B) for 48 hours. Cell viability was measured by a WST-1 assay.
# (§4) To assess whether the peptoids are toxic to human cells, Applicant performed the WST-1 assay.
# MCF-7 cells = assay: WST-1 cell viability assay; assay type: cell-based, human; conditions: various concentrations, 48 hours
# Experimental: as §3, §4
# [8] = biological target: T5, ACE2 protein levels on cell surface (Homo sapiens, UniProt Q9BYF1); assay: ACE2 surface expression by flow cytometry; assay type: cell-based; conditions: H1299 cells, 48 hours
# T5 construct: endogenous in cells; host or cells: H1299 human lung cancer cells
# Experimental: H1299 cells were treated with ACE2P1D1 or ACE2P2D1 for 48 hours. ACE2 surface expression was determined by flow cytometry analysis.
# Next, Applicant determined whether or not the peptoids in this Example can decrease ACE2 levels on a cell surface.
# T1 sequence (Q9BYF1 18-805): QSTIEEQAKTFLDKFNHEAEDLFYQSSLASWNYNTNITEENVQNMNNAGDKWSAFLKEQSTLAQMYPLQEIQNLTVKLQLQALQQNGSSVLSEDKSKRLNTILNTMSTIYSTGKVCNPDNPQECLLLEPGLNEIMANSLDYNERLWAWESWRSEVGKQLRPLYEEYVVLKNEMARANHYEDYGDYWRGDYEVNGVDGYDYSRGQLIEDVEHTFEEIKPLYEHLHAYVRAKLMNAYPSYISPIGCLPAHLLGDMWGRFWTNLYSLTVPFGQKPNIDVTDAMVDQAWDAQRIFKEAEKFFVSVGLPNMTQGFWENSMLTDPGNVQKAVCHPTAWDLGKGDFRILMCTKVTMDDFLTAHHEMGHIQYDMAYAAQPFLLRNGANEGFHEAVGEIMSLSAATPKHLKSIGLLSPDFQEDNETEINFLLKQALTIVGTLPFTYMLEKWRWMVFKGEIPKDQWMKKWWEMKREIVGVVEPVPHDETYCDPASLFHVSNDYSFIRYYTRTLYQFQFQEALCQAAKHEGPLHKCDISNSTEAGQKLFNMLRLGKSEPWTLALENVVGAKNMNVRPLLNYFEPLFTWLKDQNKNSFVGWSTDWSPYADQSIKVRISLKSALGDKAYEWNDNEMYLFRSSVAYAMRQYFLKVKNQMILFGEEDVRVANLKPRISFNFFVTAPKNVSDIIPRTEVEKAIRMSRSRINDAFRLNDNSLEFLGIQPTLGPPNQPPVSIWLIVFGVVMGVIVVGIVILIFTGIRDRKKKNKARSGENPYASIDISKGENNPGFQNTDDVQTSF
# Chain of SARS-CoV-2 spike protein binding to ACE2 (Q9BYF1 18-740): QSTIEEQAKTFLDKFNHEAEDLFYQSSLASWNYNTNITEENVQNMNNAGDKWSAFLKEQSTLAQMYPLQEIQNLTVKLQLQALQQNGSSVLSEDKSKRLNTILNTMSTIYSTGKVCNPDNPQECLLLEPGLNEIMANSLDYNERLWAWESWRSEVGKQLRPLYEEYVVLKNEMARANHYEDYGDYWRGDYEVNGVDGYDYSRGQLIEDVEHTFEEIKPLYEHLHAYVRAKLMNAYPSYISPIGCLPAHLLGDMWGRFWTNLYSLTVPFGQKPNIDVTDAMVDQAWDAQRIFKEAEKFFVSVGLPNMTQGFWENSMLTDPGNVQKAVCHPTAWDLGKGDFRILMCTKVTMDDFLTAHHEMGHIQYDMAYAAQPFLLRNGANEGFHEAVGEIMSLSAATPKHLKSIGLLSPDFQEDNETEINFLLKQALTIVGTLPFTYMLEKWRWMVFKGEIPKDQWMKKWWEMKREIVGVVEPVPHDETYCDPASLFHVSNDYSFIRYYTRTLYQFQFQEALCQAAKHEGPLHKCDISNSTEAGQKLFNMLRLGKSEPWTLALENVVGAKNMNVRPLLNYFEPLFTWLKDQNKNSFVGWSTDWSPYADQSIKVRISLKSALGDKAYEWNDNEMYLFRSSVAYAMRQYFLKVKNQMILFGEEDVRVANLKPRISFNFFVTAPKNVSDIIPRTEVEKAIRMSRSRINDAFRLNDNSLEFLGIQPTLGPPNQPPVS
# T4 sequence (Q9BYF1 18-805): as the sequence (Q9BYF1 18-805) above
# T3 sequence (Q9BYF1 18-805): as above
# T5 sequence (Q9BYF1 18-805): as above
# T2 sequence (Q9BYF1 18-805): as above
Structure (SMILES),binding of peptoid beads to ACE2+ versus ACE2- MCF-7 cells [1],binding of spike protein to ACE2 [2],pull down of ACE2 protein (ACE2 protein [3]),enzymatic activity of ACE2 [4],enzymatic activity of ACE2 (ACE2 in MCF-7 cells),SARS-CoV-2 pseudovirus infection (SARS-CoV-2 pseudovirus),expression levels of ACE2 protein (ACE2 protein [5]),enzymatic activity of ACE2 (ACE2 in Caco-2 cells),change in protein melting temperature (ACE2 protein [6]),ACE2 enzyme activity (ACE2 protein [7]),cell viability (HEK293T cells),cell viability (MCF-7 cells),ACE2 protein levels on cell surface [8]
C=CCN(CC(=O)N(CC(=O)NC(CCCCN)C(=O)NC(CCSC)C(N)=O)C(C)c1ccccc1)C(=O)CN(Cc1ccc(OC)cc1)C(=O)CN(C(=O)CN(CCOC)C(=O)CNCC(C)C)C(C)c1ccccc1 (stereo not shown) [ACE2P1] (H-[Nleu][Nme][X1][N(4-MeOBn)Gly][NAllylGly][X1]KM-NH2; configuration not given here),bound only to red stained ACE2^+ cells,increased the binding of spike protein to ACE2,able to pull down the ACE2 protein,–,–,–,–,–,–,–,–,–,–
COCCN(CC(=O)NC(CCCCN)C(=O)NC(CCSC)C(N)=O)C(=O)CN(CC(C)C)C(=O)CN(CC(C)C)C(=O)CN(CCCOC(C)C)C(=O)CN(Cc1ccc(OC)cc1)C(=O)CNCc1ccc(OC)cc1 (stereo not shown) [ACE2P2] (H-[N(4-MeOBn)Gly][N(4-MeOBn)Gly][N((CH2)3OiPr)Gly][Nleu][Nleu][Nme]KM-NH2; configuration not given here),bound only to red stained ACE2^+ cells,increased the binding of spike protein to ACE2,able to pull down the ACE2 protein,–,–,–,–,–,–,–,–,–,–
C=CCN(CC(=O)N(CC(=O)NC(CCCCN)C(=O)NC(CCSC)C(=O)NCCCCC(NC(=O)C(CCSC)NC(=O)C(CCCCN)NC(=O)CN(C(=O)CN(CC=C)C(=O)CN(Cc1ccc(OC)cc1)C(=O)CN(C(=O)CN(CCOC)C(=O)CNCC(C)C)C(C)c1ccccc1)C(C)c1ccccc1)C(N)=O)C(C)c1ccccc1)C(=O)CN(Cc1ccc(OC)cc1)C(=O)CN(C(=O)CN(CCOC)C(=O)CNCC(C)C)C(C)c1ccccc1 (stereo not shown) [ACE2P1D1] (I: H-[Nleu][Nme][X1][N(4-MeOBn)Gly][NAllylGly][X1]KMK-NH2 / II: H-[Nleu][Nme][X1][N(4-MeOBn)Gly][NAllylGly][X1]KM; amide I:9-II:C; configuration not given here),–,prevented the binding of spike protein to ACE2,–,did not affect the enzymatic activity of ACE2,did not affect the enzymatic activity of ACE2,effective in inhibiting SARS-CoV-2 pseudovirus infection,did not decrease the expression levels of ACE2 protein,did not affect the enzymatic activity of ACE2,increase in protein melting temperature,no effects on ACE2 activity,no effects on the viability,no effects on the viability,did not decrease the ACE2 protein levels on cell surface
COCCN(CC(=O)NC(CCCCN)C(=O)NC(CCSC)C(=O)NCCCCC(NC(=O)C(CCSC)NC(=O)C(CCCCN)NC(=O)CN(CCOC)C(=O)CN(CC(C)C)C(=O)CN(CC(C)C)C(=O)CN(CCCOC(C)C)C(=O)CN(Cc1ccc(OC)cc1)C(=O)CNCc1ccc(OC)cc1)C(N)=O)C(=O)CN(CC(C)C)C(=O)CN(CC(C)C)C(=O)CN(CCCOC(C)C)C(=O)CN(Cc1ccc(OC)cc1)C(=O)CNCc1ccc(OC)cc1 (stereo not shown) [ACE2P2D1] (I: H-[N(4-MeOBn)Gly][N(4-MeOBn)Gly][N((CH2)3OiPr)Gly][Nleu][Nleu][Nme]KMK-NH2 / II: H-[N(4-MeOBn)Gly][N(4-MeOBn)Gly][N((CH2)3OiPr)Gly][Nleu][Nleu][Nme]KM; amide I:9-II:C; configuration not given here),–,prevented the binding of spike protein to ACE2,–,did not affect the enzymatic activity of ACE2,did not affect the enzymatic activity of ACE2,effective in inhibiting SARS-CoV-2 pseudovirus infection,did not decrease the expression levels of ACE2 protein,did not affect the enzymatic activity of ACE2,increase in protein melting temperature,no effects on ACE2 activity,no effects on the viability,no effects on the viability,did not decrease the ACE2 protein levels on cell surface
